Where a SMILES comes first, the peptide text is derived from it. [ ]: non-standard residue; d: D form.
What was measured:
VCaP cells [1] = format: cell-based
Description: The samples were treated with SDS loading buffer supplied with 10 mM DTT for 5 min at 85° C. The proteins were alkylated by adding iodoacetamide to the final concentration of 15 mM. The samples were subjected to SDS-PAGE and the whole lanes were cut out and digested with trypsin in-gel for 2 hours. The resulting peptides were extracted, dried and resuspended in 0.1% formic acid with 5% acetonitrile prior to loading onto a trap EASY-column (Thermo Scientific) coupled to an in-house made nano HPLC column (20 cm×75 um) packed with LUNA C18 media. Analysis was performed on Velos Pro mass spectrometer (Thermo Scientific) operated in data-dependent mode using 90-min gradients in EASY-LC system (Proxeon) with 95% water, 5% acetonitrile (ACN), 0.1% formic acid (FA) (solvent A), and 95% ACN, 5% water, 0.1% FA (solvent B) at a flow rate of 220 nl/min. […]
The resulting spectrum files were transformed into MGF format by MSConvert software and interrogated by MASCOT 2.4 search engine using human UniProt database version 15 concatenated with reverse sequences for estimation of false discovery rate (FDR) and with a list of common contaminants. […] The peptide FDR was calculated as 2×(decoy_hits)/(target+decoy hits). Spectral counts for all detected proteins were assembled using an in-house written Python script. […]

VCaP cells [2] = system: VCaP cells; design: species or system chicken embryo; conditions: in vivo, 25 mg/kg
Description: The CAM assays were performed as described previously (Brenner et al., 2011; supra). Briefly, fertilized eggs were incubated in a rotary humidified incubator at 38° C. for 10 days. First the CAM was released by applying mild pressure to the hole over the air sac and cutting a square 1 cm^2 window encompassing a second hole near the allantoic vein. Then cultured VCaP cells that stably express Cherry Red and pre-treated with peptidomimetics as indicated were detached by trypsinization and re-suspended in complete medium and 2×10^6 cells were implanted adjacent to the mesenchyme in each egg. The windows were subsequently sealed and the eggs were returned to a stationary incubator. For invasion and intravasation experiments, implanted eggs were treated with 25 mg/kg body weight of the peptidomimetics 6 hrs after inoculation and both the upper and lower CAM were isolated after 72 hr. Invasive cells were processed and stained for chicken collagen IV as previously described (Brenner et al., 2011; supra). […] The embryonic lungs were harvested and analyzed for the presence of tumor cells by quantitative human alu-specific PCR. […] Quantification of human cells in the extracted DNA was carried out as described (van der Horst et al., Biotechniques 37, 940-942, 944, 946 2004). Fluorogenic TaqMan qPCR probes were used as described above, and DNA copy numbers were quantified.

[3] = system: ERG targets such as TDRD1, ARHGDIB, NDRG1 and CACNA1D; design: species or system mice; conditions: mouse, in vivo
Description: Total RNA was isolated from VCaP cells and tumors using Qiazol following the manufacturer's protocol (Qiagen). Quantitative PCR (QPCR) was performed using SYBR Green dye on an Applied Biosystems 7300 Real Time PCR system (Applied Biosystems) as described (Tomlins et al., 2005). Briefly, 2 μg of total RNA was reverse transcribed into cDNA using SuperScript III (Invitrogen) in the presence of random primers (Invitrogen). All reactions were performed in triplicate with SYBR Green Master Mix (Applied Biosystems) and 25 ng of forward and reverse primer according to the manufacturer's recommended thermocycling conditions, and then subjected to melt curve analysis. Threshold levels for each experiment were set during the exponential phase of the QPCR reaction using Sequence Detection Software version 1.2.2 (Applied Biosystems). The relative quantity of the target gene was calculated for each sample using the ΔΔCt method by the comparing mean Ct of the gene to the average Ct of the housekeeping gene, […] (Livak and Schmittgen, 2001). All oligonucleotide primers were synthesized by Integrated DNA Technologies (Coralville, Iowa). The primer sequences for the transcript analyzed were previously described (Brenner et al., 2011; supra).

CD31^+ vessels = system: CD31^+ vessels; design: species or system mice; conditions: mouse, in vivo
Description: (M) The quantitative data of IHC staining.

ERG = target: T1, ERG (Homo sapiens, UniProt P11308)
T1 sequence (P11308 1-479): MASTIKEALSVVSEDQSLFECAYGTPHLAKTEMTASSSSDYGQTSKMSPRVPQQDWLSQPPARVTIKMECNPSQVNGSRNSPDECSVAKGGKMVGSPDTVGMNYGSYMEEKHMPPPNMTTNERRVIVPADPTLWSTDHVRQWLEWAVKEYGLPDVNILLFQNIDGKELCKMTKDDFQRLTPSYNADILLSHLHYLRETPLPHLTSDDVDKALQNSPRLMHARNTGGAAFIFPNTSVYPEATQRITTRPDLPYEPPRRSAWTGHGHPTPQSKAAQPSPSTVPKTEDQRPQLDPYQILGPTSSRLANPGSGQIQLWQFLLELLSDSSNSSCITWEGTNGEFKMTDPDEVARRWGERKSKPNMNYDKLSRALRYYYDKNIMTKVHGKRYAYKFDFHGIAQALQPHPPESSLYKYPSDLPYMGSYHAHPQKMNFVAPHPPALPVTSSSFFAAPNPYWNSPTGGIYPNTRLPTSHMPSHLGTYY
Description: This technique was applied to evaluate the target binding specificity of RI-EIPs. […] All CETSAs were performed after 3 hours treatment with the peptidomimetics at the indicated doses and temperatures.

[4] = system: PC3 (ERG fusion-negative) xenografts; experiment: PC3 xenograft mouse model, tumor growth; conditions: 25 mg/kg, compared to mutant peptidomimetic
Description: Athymic Nude-Foxnlnu male mice were procured from Harlan Laboratories, Inc (Indianapolis, Ind.). All procedures involving mice were approved by the University Committee on Use and Care of Animals (UCUCA) at the University of Michigan and conformed to their relevant regulatory standards. […] Statistical significance for Kaplan-Meier analysis was determined by the log-rank (Mantel-Cox) test.
Athymic Nude-Foxnlnu male mice were procured from Harlan Laboratories, Inc. (Indianapolis, Ind.). VCaP (2×10^6 cells) or PC3 (5×10^5 cells) were resuspended in 100 μl of saline with 50% Matrigel (BD Biosciences, Becton Drive, NJ) and implanted subcutaneously into the flank regions on both sides of the mice. Mice were anesthetized using a cocktail of xylazine (80-120 mg/kg, IP) and ketamine (10 mg/kg, IP) for chemical restraint before tumor cells implantation. For short term assays, all tumors were staged for three weeks before starting peptidomimetic treatment. […]
Tumor growth was recorded every three days using digital calipers and tumor volumes were calculated using the formula (π/6) (L×W2), where L=length of tumor and W=width. Body weight was monitored weekly over the course of the study. […] Statistical significance for Kaplan-Meier analysis was determined by the log-rank (Mantel-Cox) test. […]

## CC(C)C[C@@H](NC(=O)[C@H]1CCCN1C(=O)[C@H]1CCCN1C(=O)[C@@H](Cc1ccc(O)cc1)NC(=O)[C@@H](CC(C)C)NC(=O)[C@@H](Cc1ccccc1)NC(=O)[C@H](NC(=O)CNC(=O)CNC(=O)[C@@H](CCCNC(=N)N)NC(=O)[C@@H](CCCCN)NC(=O)[C@@H](CCCCN)NC(=O)[C@@H](CCCNC(=N)N)NC(=O)[C@@H](CCCNC(=N)N)NC(=O)[C@@H](CCC(N)=O)NC(=O)[C@@H](CCCNC(=N)N)NC(=O)[C@@H](CCCNC(=N)N)NC(=O)[C@@H](CCCNC(=N)N)NC(=O)CN)[C@H](C)O)C(=O)O [RI-EIP1] (H-G[dR][dR][dR][dQ][dR][dR][dK][dK][dR]GG[dT][dF][dL][dY][dP][dP][dL]-OH)
VCaP cells [1]
  depletion of ERG among 3020 proteins identified: most significantly depleted
VCaP cells [2]
  ERG-mediated invasion and intravasation: dramatically blocked
[3]
  gene expression of ERG targets in VCaP tumors: inhibited
CD31^+ vessels
  angiogenesis by number of CD31^+ vessels in FFPE sections: did not alter angiogenesis
ERG
  soluble ERG protein in VCaP versus HUVEC cells (CETSA): clear difference
[4]
  tumor size of PC3 xenografts: no difference in tumor size
